Experimental data reported in patent publication EP0021678B1, “1-Sulpho-2-oxoazetidine derivatives, their production and pharmaceutical compositions thereof” (Takeda Chemical Industries, Ltd., priority 1979, dated 1981).
Like-named read-outs stand apart in the source and are kept apart here.

How the values were obtained:
Test in all cases: Anti-bacterial test, minimum inhibitory concentration on agar
Assay type in all cases: cell-based
[1] = tested on: Enterobacter cloacae IFO 12937; details: Enterobacter cloacae IFO 12937, medium TSA; for MIC: IFO12937, read-out: Minimum inhibitory concentration
Source text: (§1) The compound (I) thus obtained is useful as a drug, being active against certain gram-positive and gram-negative bacteria. By way of example, the compounds are active against the following micro-organisms.
(§2) The media and compounds employed in the anti-bacterial test are as follows: • Media: • TSA = Trypticase soy agar • [Baltimore Biologicals (U.S.A.)] • B-TSA = Blood trypticase soy agar • Compounds: • Compound A = Sodium 3-[2-(2-amino-4-thiazolyl)-2-methoxyiminoacetamido]-2-oxo-azetidine-1-sulphonate • Compound B = Sodium 3-[D(-)-N-(4-ethyl-2,3-dioxo-1-piperazinocarbonyl)-phenyl-glycin- amido]-2-oxoazetidine-1-sulphonate • Compound C = Sodium 3-[D(-)-N-(4-ethyl-2,3-dioxo-1-piperazinocarbonyl)phenylglycinamido]-3-methoxy-2-oxoazetidine-1-sulphonate • Compound D = Sodium 3-[2-(4-ethyl-2,3-dioxo-1-piperazinocarboxamido)-2-(2-amino-4-thiazolyl)-acetamido]-2-oxoazetidine-1-sulphonate • Compound E = Sodium 3-[DL-2-(4-ethyl-2,3-dioxo-1-piperazinocarboxamido)-2-thienylacetamido]-2-oxoazetidine-1-sulphonate • Compound F = Sodium 3-[D-2-(4-ethyl-2,3-dioxo-1-piperazinocarboxamido)-2-thienylacetamido]-2-oxoazetidine-1-sulphonate • Compound G = Sodium 3-[D-2-(4-n-octyl-2,3-dioxo-1-piperazinocarboxamido)-2-phenylacetamido]-2-oxoazetidine-1-sulphonate • Compound H = Sodium 3-[2-(4-n-octyl-2,3-dioxo-1-piperazinocarboxamido)-2-(2-amino-4-thiazolyl)-acetamido]-2-oxoazetidine-1-sulphonate • Compound I = Sodium 3-[D-2-[(2-oxo-3-furfurylideneaminoimidazolidin-1-yl)-carboxamido]-2-phenylacetamido]-2-oxoazetidine-1-sulphonate • Compound J = Sodium 3-[2-(4-n-octyl-2,3-dioxo-1-piperazinocarboxamido)-2-thienylacetamido]-2-oxoazetidine-1-sulphonate • Compound K = Sodium 3-[D-2-[[2-oxo-3-(thiophen-2-aidoimino)-imidazolidin-1-yl]-carboxamido]-2-phenylacetamido]-2-oxoazetidine-1-sulphonate • Compound L = Sodium 3-[2-[(2-oxo-3-furfurylideneaminoimidazolidin-1-yl)-carboxamido]-2-thienylacetamido]-2-oxoazetidine-1-sulphonate

[2] = tested on: Acinetobacter calcoaceticus IFO 13006; details: Acinetobacter calcoaceticus IFO 13006, medium TSA; for MIC: IFO13006, read-out: Minimum inhibitory concentration
Source text: as §1, §2

[3] = tested on: Proteus mirabilis IFO 3849; details: Proteus mirabilis IFO 3849, medium TSA; for MIC: IFO3849, read-out: Minimum inhibitory concentration
Source text: as §1, §2

[4] = tested on: Streptococcus pneumoniae Type I; details: for MIC: read-out: Minimum inhibitory concentration
Source text: as §1, §2

[5] = tested on: Pseudomonas aeruginosa U 31; details: Pseudomonas aeruginosa U 31, medium TSA; for MIC: U31, read-out: Minimum inhibitory concentration
Source text: as §1, §2

[6] = tested on: Bordetella bronchiseptica Sagami; details: Bordetella bronchiseptica Sagami, medium B—TSA; for MIC: read-out: Minimum inhibitory concentration
Source text: as §1, §2

[7] = tested on: Streptococcus faecium IFO 3128; details: Streptococcus faecium IFO 3128, medium B—TSA; for MIC: Enterococcus faecium, IFO3128, read-out: Minimum inhibitory concentration
Source text: as §1, §2

Candida albicans TA = details: Candida albicans TA, medium TSA; for MIC: read-out: Minimum inhibitory concentration
Source text: as §1, §2

[8] = tested on: Citrobacter freundii IFO 12681; details: Citrobacter freundii IFO 12681, medium TSA; for MIC: IFO12681, read-out: Minimum inhibitory concentration
Source text: as §1, §2

[9] = tested on: Corynebacterium diphtheriae Toronto; details: Corynebacterium diphtheriae Toronto, medium B—TSA; for MIC: read-out: Minimum inhibitory concentration
Source text: as §1, §2

[10] = tested on: Staphylococcus aureus FDA209P; details: Staphylococcus aureus FDA209P; for MIC: Staphylococcus aureus, FDA209P, read-out: Minimum inhibitory concentration
Source text: as §1, §2

[11] = tested on: Staphylococcus aureus 308A—1; details: for MIC: read-out: Minimum inhibitory concentration
Source text: as §1, §2

[12] = tested on: Streptococcus pyogenes S—8; details: Streptococcus pyogenes S—8, medium B—TSA; for MIC: read-out: Minimum inhibitory concentration
Source text: as §1, §2

[13] = tested on: Escherichia coli NIHJ JC—2; details: Escherichia coli NIHJ JC—2, medium TSA; for MIC: read-out: Minimum inhibitory concentration
Source text: as §1, §2

[14] = tested on: Streptococcus pyogenes E—14; details: for MIC: read-out: Minimum inhibitory concentration
Source text: as §1, §2

Escherichia coli T-7 = details: for MIC: T7, medium TSA
Source text: as §1, §2

Klebsiella pneumoniae DT = details: for MIC: read-out: Minimum inhibitory concentration
Source text: as §1, §2

[15] = tested on: Streptococcus mitis America; details: Streptococcus mitis America, medium B—TSA; for MIC: read-out: Minimum inhibitory concentration
Source text: as §1, §2

Escherichia coli O—111 = details: medium TSA
Source text: as §1, §2

[16] = tested on: Serratia marcescens IFO 12648; details: Serratia marcescens IFO 12648, medium TSA; for MIC: IFO12648, read-out: Minimum inhibitory concentration
Source text: as §1, §2

[17] = tested on: Pseudomonas aeruginosa IFO 3455; details: Pseudomonas aeruginosa IFO 3455, medium TSA; for MIC: IFO3455, read-out: Minimum inhibitory concentration
Source text: as §1, §2

[18] = tested on: Proteus morganii IFO 3168; details: Proteus morganii IFO 3168, medium TSA; for MIC: Morganella morganii, IFO3168, read-out: Minimum inhibitory concentration
Source text: as §1, §2

[19] = tested on: Proteus vulgaris IFO 3988
Source text: as §1, §2

[20] = tested on: Staphylococcus aureus 1840; details: Staphylococcus aureus 1840, medium TSA; for MIC: read-out: Minimum inhibitory concentration
Source text: as §1, §2

[21] = Klebsiella pneumoniae DT, medium TSA
[22] = IFO3988, Proteus vulgaris IFO 3988, medium TSA, read-out: Minimum inhibitory concentration
[23] = Streptococcus pneumoniae Type I, medium B—TSA
[24] = Staphylococcus aureus 308A—1, medium TSA
[25] = Streptococcus pyogenes E—14, medium B—TSA

CCCCCCCCN1CCN(C(=O)NC(C(=O)NC2CN(S(=O)(=O)O)C2=O)c2csc(N)n2)C(=O)C1=O (stereo not shown) [Compound H, Sodium 3-[2-(4-n-octyl-2,3-dioxo-1-piperazinocarboxamido)-2-(2-amino-4-thiazolyl)-acetamido]-2-oxoazetidine-1-sulphonate]
0.78 µg/mL: MIC [9]
12.5 µg/mL: MIC [8] | MIC ([10]; medium B—TSA) | MIC [13] | MIC (Klebsiella pneumoniae DT; [21]) | MIC [16] | MIC [17] | MIC [20]
25 µg/mL: MIC [3] | MIC [15]
6.25 µg/mL: MIC ([10]; medium TSA) | MIC [18] | MIC [19, 22]
50 µg/mL: MIC [1] | MIC [2] | MIC [5]
3.13 µg/mL: MIC ([4]; Streptococcus pneumoniae) | MIC ([11]; Staphylococcus aureus) | MIC ([14]; Streptococcus pyogenes) | MIC (Escherichia coli O—111)
> 100 µg/mL: MIC [6] | MIC [7] | MIC (Candida albicans TA) | MIC (Escherichia coli T-7)
1.56 µg/mL: MIC [12]

O=C(NC1CN(S(=O)(=O)O)C1=O)[C@H](NC(=O)N1CCN(N=Cc2cccs2)C1=O)c1ccccc1 (stereo partly drawn) [Compound K, Sodium 3-[D-2-[[2-oxo-3-(thiophen-2-aidoimino)-imidazolidin-1-yl]-carboxamido]-2-phenylacetamido]-2-oxoazetidine-1-sulphonate]
50 µg/mL: MIC [2] | MIC [20]
6.25 µg/mL: MIC ([10]; medium B—TSA) | MIC ([10]; medium TSA)
3.13 µg/mL: MIC [9] | MIC [11, 24] | MIC [17]
> 100 µg/mL: MIC [5] | MIC [6] | MIC [7] | MIC (Candida albicans TA) | MIC (Escherichia coli T-7)
1.56 µg/mL: MIC [3] | MIC [4, 23] | MIC [8] | MIC [12] | MIC [13] | MIC [15] | MIC [16]
0.39 µg/mL: MIC (Klebsiella pneumoniae DT; [21]) | MIC (Escherichia coli O—111) | MIC [19, 22]
12.5 µg/mL: MIC [1] | MIC [18]
0.78 µg/mL: MIC [14, 25]

CCCCCCCCN1CCN(C(=O)NC(C(=O)NC2CN(S(=O)(=O)[O-])C2=O)c2cccs2)C(=O)C1=O.[Na+] (stereo not shown) [Compound J, Sodium 3-[2-(4-n-octyl-2,3-dioxo-1-piperazinocarboxamido)-2-thienylacetamido]-2-oxoazetidine-1-sulphonate]
6.25 µg/mL: Minimum inhibitory concentration [1] | Minimum inhibitory concentration [2] | Minimum inhibitory concentration [17] | Minimum inhibitory concentration [20]
3.13 µg/mL: Minimum inhibitory concentration [3] | Minimum inhibitory concentration [8] | Minimum inhibitory concentration ([10]; medium B—TSA) | Minimum inhibitory concentration [13]
25 µg/mL: Minimum inhibitory concentration [5] | Minimum inhibitory concentration [15]
0.78 µg/mL: Minimum inhibitory concentration [9]
>100 µg/mL: Minimum inhibitory concentration [6] | Minimum inhibitory concentration [7] | Minimum inhibitory concentration (Candida albicans TA) | Minimum inhibitory concentration (Escherichia coli T-7; medium TSA)
1.56 µg/mL: Minimum inhibitory concentration [4, 23] | Minimum inhibitory concentration ([10]; medium TSA) | Minimum inhibitory concentration [11, 24] | Minimum inhibitory concentration [12] | Minimum inhibitory concentration [14, 25] | Minimum inhibitory concentration (Klebsiella pneumoniae DT; [21]) | Minimum inhibitory concentration [16] | Minimum inhibitory concentration [18] | Minimum inhibitory concentration ([19]; Proteus vulgaris IFO 3988, medium TSA)

CCN1CCN(C(=O)N[C@@H](C(=O)NC2(OC)CN(S(=O)(=O)O)C2=O)c2ccccc2)C(=O)C1=O (single isomer, unassigned) [Compound C, Sodium 3-[D(-)-N-(4-ethyl-2,3-dioxo-1-piperazinocarbonyl)phenylglycinamido]-3-methoxy-2-oxoazetidine-1-sulphonate]
100 µg/mL: MIC ([10]; medium TSA)
50 µg/mL: MIC [3] | MIC [9] | MIC [12] | MIC [13] | MIC [14, 25] | MIC [16]
> 100 µg/mL: MIC [1] | MIC [5] | MIC (Candida albicans TA) | MIC [18]
12.5 µg/mL: MIC (Klebsiella pneumoniae DT; Klebsiella pneumoniae) | MIC (Escherichia coli O—111) | MIC ([19]; Proteus vulgaris, IFO3988, read-out: Minimum inhibitory concentration)
